Patent US20230181584A1, “METHOD OF TREATING CANCER HAVING AN ACTIVATED HEDGEHOG PATHWAY” (Endeavor Biomedicines, Inc., priority 2021, published 2023)

Tests used:
advanced cancer [1] = experiment: HHBB: Phase 1 dose-escalation study of taladegib in patients with advanced cancer; type: in vivo, human; conditions: N=84, monotherapy, RECIST v1.1
From the text: (§1) Approximately 192 study participants have received at least one dose of taladegib in sponsor-initiated and -controlled trials for the treatment of advanced cancers. The clinical trials were: • q. HHBB: Phase 1 dose-escalation study to evaluate the safety and tolerability of taladegib in patients with advanced cancer. • r. HHBE: Phase Ib/2 double-blind randomized study of the Human smoothened (hSmo) antagonist taladegib in combination with carboplatin and etoposide followed by taladegib versus carboplatin and etoposide plus placebo followed by placebo in patients with extensive stage small cell lung cancer (SCLC). • s. HHBH: Phase 1 study of taladegib in Japanese patients with advanced solid tumors. • t. HIPROC: An investigator-initiated Phase 1a/1b dose-escalation study of taladegib in combination with weekly intravenous paclitaxel in patients with advanced solid cancers. • u. HHBF: A Phase 1 ^14C metabolism study of 100 mg of taladegib in healthy subjects. • v. HHBG: A Phase 1 single ascending dose study of taladegib in healthy subjects.
(§2) Participants include approximately 156 advanced cancer patients from studies HHBB (N=95), HHBE (N=26), HHBH (N=19), HIPROC (N=16) and 36 healthy volunteers from studies HHBG (N=30) and HHBF (N=6).
(§3) The primary tumor type enrolled was BCC. Additionally, responses in medulloblastoma (monotherapy), SCLC (in combination with carboplatin and etoposide) and ovarian cancer (in combination with paclitaxel) were also observed.

advanced cancer [2] = experiment: HHBB addendum; type: in vivo, human; conditions: N=11, RECIST v1.1
From the text: as §3

advanced solid tumors = experiment: HHBH: Phase 1 study of taladegib in Japanese patients with advanced solid tumors; type: in vivo, human; conditions: N=19, RECIST v1.1
From the text: as §1, §2, §3

[3] = test system: extensive stage small cell lung cancer (SCLC); experiment: HHBE: Phase Ib/2 study of taladegib with carboplatin and etoposide in extensive stage SCLC; type: in vivo, human; conditions: in combination with carboplatin and etoposide, N=26, RECIST v1.1
From the text: as §1, §2, §3

advanced solid cancers = experiment: HIPROC: Phase 1a/1b dose-escalation study of taladegib with weekly intravenous paclitaxel; type: in vivo, human; conditions: in combination with weekly intravenous paclitaxel, N=16, RECIST v1.1
From the text: as §1, §2, §3

advanced cancer [4] = experiment: Clinical benefit across all completed studies of taladegib in advanced cancer (total); type: in vivo, human
From the text: as §1, §2, §3

[5] = Safety in clinical trials of taladegib (healthy volunteers and advanced cancer patients); type: in vivo, human
From the text: as §1, §2
As expected, AEs associated with chemotherapy were also observed when taladegib was used in combination with anti-neoplastic agents.

Gli1 activity = conditions: Daoy cells; as described in U.S. Pat. No. 9,000,023; read-out: IC50, inhibition of Gli1 activity; cited from earlier work
[6] = background statement on Hh pathway inhibitors; cited from earlier work
[7] = Total of all completed studies, N=156

CN(C(=O)c1ccc(F)cc1C(F)(F)F)C1CCN(c2nnc(-c3ccnn3C)c3ccccc23)CC1 [Taladegib, 4-Fluoro-N-methyl-N-(1-(4-(1-methyl-1H-pyrazol-5-yl)phthalazin-1-yl)piperidin-4-yl)-2-(trifluoromethyl)benzamide]
CR (complete response), number of patients (advanced cancer [1]): 5
CR (complete response), percent of patients (advanced cancer [1]): 6%
Clinical Benefit, number of patients (advanced cancer [1]): 48
Clinical Benefit, percent of patients (advanced cancer [1]): 57%
PR (partial response), number of patients (advanced cancer [1]): 17
PR (partial response), percent of patients (advanced cancer [1]): 20%
CR (complete response), number of patients (advanced cancer [2]): 1
CR (complete response), percent of patients (advanced cancer [2]): 9%
Clinical Benefit, number of patients (advanced cancer [2]): 4
Clinical Benefit, percent of patients (advanced cancer [2]): 36%
PR (partial response), number of patients (advanced cancer [2]): 0
CR (complete response), number of patients (advanced solid tumors): 0 (0%)
CR (complete response), percent of patients (advanced solid tumors): 0 (0%)
Clinical Benefit, number of patients (advanced solid tumors): 5
Clinical Benefit, percent of patients (advanced solid tumors): 26%
PR (partial response), number of patients (advanced solid tumors): 1
PR (partial response), percent of patients (advanced solid tumors): 5%
CR (complete response), number of patients [3]: 0 (0%)
CR (complete response), percent of patients [3]: 0 (0%)
Clinical Benefit, number of patients [3]: 21
Clinical Benefit, percent of patients [3]: 81%
PR (partial response), number of patients [3]: 14
PR (partial response), percent of patients [3]: 54%
CR (complete response), number of patients (advanced solid cancers): 0 (0%)
CR (complete response), percent of patients (advanced solid cancers): 0 (0%)
Clinical Benefit, number of patients (advanced solid cancers): 10
Clinical Benefit, percent of patients (advanced solid cancers): 62%
PR (partial response), number of patients (advanced solid cancers): 4
PR (partial response), percent of patients (advanced solid cancers): 25%
CR (complete response), number of patients (advanced cancer [4]; [7]): 6
CR (complete response), percent of patients (advanced cancer [4]; [7]): 4%
Clinical Benefit, number of patients (advanced cancer [4]; [7]): 94
Clinical Benefit, percent of patients (advanced cancer [4]; [7]): 60%
PR (partial response), number of patients (advanced cancer [4]; [7]): 42
PR (partial response), percent of patients (advanced cancer [4]; [7]): 27%
Clinical (RECIST v1.1) responses by dose (advanced cancer [4]; across all four multiple-dose studies in patients): responses were observed at all doses
Responses in SCLC (advanced cancer [4]; in combination with carboplatin and etoposide): observed
Responses in ovarian cancer (advanced cancer [4]; in combination with paclitaxel): observed
Responses in medulloblastoma (advanced cancer [4]; monotherapy): observed
Safety profile ([5]; advanced cancer patients, monotherapy and combination with anti-neoplastic agents): manageable safety profile
Most commonly observed AEs ([5]; as a monotherapy): nausea, diarrhea, dysgeusia, fatigue, decreased appetite, alopecia, vomiting, muscle spasm, constipation, weight decrease, and headache
Important potential risks associated with treatment ([5]; on the basis of preclinical and clinical data and information for molecules in the same therapeutic class): hepatic injury, embryotoxicity and teratogenicity, and rhabdomyolysis
IC50 (Gli1 activity): ~2.4 nM

CC1=C2C[C@H]3[C@@H](CC[C@@H]4C[C@H](NS(C)(=O)=O)CC[C@@]43C)[C@@H]2CC[C@@]2(C1)O[C@@H]1C[C@H](C)CN[C@H]1[C@H]2C [saridegib]
Toxicity [6]: unacceptable toxicity

CS(=O)(=O)c1ccc(C(=O)Nc2ccc(Cl)c(-c3ccccn3)c2)c(Cl)c1 [vismodegib]
Toxicity [6]: unacceptable toxicity
